We go through one compound from US20260193619A1, “CULTURE MEDIUM COMPOSITION” (priority 2023, published 2026).

Molecules are shown by their SMILES.

One test relates to Human adenovirus 32. The test is described as follows: Production of adenovirus in HEK293 by adding sodium dichloroacetate in suspension culture system. The class given is cell-based. The following applies: HEK293 2.sus, CDM4HEK293 with or without sodium dichloroacetate, MOI 0.1. As for the experimental part:
In the following Example, the ability of human embryonic kidney cell 293 (HEK293) to produce adenovirus can be evaluated using sodium dichloroacetate. […] The cell number is measured using a hemocytometer and glutamine-containing 293 SFM II is added to 3×10^5 cells/mL. […] The cell number is measured using a hemocytometer and the culture solution is added to 3×10^5 cells/mL. 5 ML of the adjusted cell suspension is added to two Petri dishes and culturing with shaking (50 rpm) is performed in a CO2 incubator for 3-4 days. • (11) After culturing, steps (8) to (10) are repeated three times. • (12) After culturing for 3 days, the cell number is measured (FIG. 1) and adjusted to 1×10^5 cells/ml using CDM4HEK293 with or without addition of sodium dichloroacetate, and 5 mL thereof is added per Petri dish. […]

A further test concerns AAV8. The experiment in a line: Production of AAV8 in HEK293 by adding sodium dichloroacetate (genome titer by real-time PCR, particles by ELISA, full capsid ratio). The following applies: HEK293, 5 mM sodium dichloroacetate, 3 days after transfection, medium without DCA = 100%. It counts as cell-based, human. As for the experimental part:
(§1) In the following Example 1, the ability of human embryonic kidney cell 293 (HEK293) to produce AAV was evaluated using sodium dichloroacetate. The reagents, cells, and medium used are as follows: • Sodium dichloroacetate: Sodium dichloroacetate (FUJIFILM Wako Pure Chemical Industries, Ltd., 326-87772) • HEK293: Viral Production Cells 2.0 (Thermo Fisher Scientific, A49784) • medium for HEK293: Viral Production Medium (Thermo Fisher Scientific: A4817901)
(§2) Viral Production Cells 2.0 were seeded in 30 mL of Viral Production Medium supplemented with GlutaMAXIM Supplement (Thermo Fisher Scientific: 35050061) to a final concentration of 4 mM in a 125 mL Erlenmeyer flask (VIOLAMO, SEF125V). The cells were then cultured in an incubator set at 37° C., 8% CO2 under stirring for two passages. […] On day 3, the number of viable cells was measured using a viable cell autoanalyzer Vi-CELL BLU (manufactured by Becman). […] 2 (Takara Bio: 6233), and the AAV8 genome titer was measured using 7500 Fast Real-Time PCR System (Thermo Fisher Scientific: 4357362). In addition, the number of viral particles was also measured using AAV-8 Titration ELISA Kit (PROGEN Biotechnik: PRAAV8). The full/empty capsid ratio (full capsid ratio) was calculated therefrom.
Background: Quantitative PCR measures a nucleic acid by following its amplification.

The next test concerns HEK293. The test is described as follows: Effect of sodium dichloroacetate on proliferation of HEK293 in suspension culture (viable cell density). It counts as cell-based, human. The note with it: HEK293 (Viral Production Cells 2.0), Viral Production Medium + 5 mM sodium dichloroacetate vs medium without, 3 days, FIG. 1. As for the experimental part: as §1, §2

On to `O=C([O-])C(Cl)Cl.[Na+]` [sodium dichloroacetate, Sodium dichloroacetate], for which the adenovirus titer entry with Human adenovirus 32 was “Improvement”. For the same compound, the “AAV8 genome titer (relative)” value with AAV8 (FIG. 2) is on record as “improvements”. Further, the “full capsid ratio (relative)” value in the test with AAV8 (FIG. 3) is given as “improvements”. For the same compound, the “cell proliferation (viable cell density before dilution on day 3 after seeding)” value in the test on HEK293 was “slightly inhibited cell proliferation”.
